Experimental data from ChEMBL document CHEMBL4699534, “Optimizing PEG-Extended Apelin Analogues as Cardioprotective Drug Leads: Importance of the KFRR Motif and Aromatic Head Group for Improved Physiological Activity” (J Med Chem, 2020).
Non-standard residues stand in square brackets, D forms with d. Residues, ends and D or L forms follow the SMILES beside them. *: point of attachment. CH3O(CH2CH2O)7C2H4CO = COCCOCCOCCOCCOCCOCCOCCOCCC(=O)*; Phe(4-Br) = N[C@@H](Cc1ccc(Br)cc1)C(=O)O; αMeR = C[C@](N)(CCCNC(=N)N)C(=O)O; NMeL = CN[C@@H](CC(C)C)C(=O)O; PEG4 = NCCOCCOCCOCCOCCC(=O)O; Nle = CCCC[C@H](N)C(=O)O; X1 = COCCOCCOCCOCCC(=O)*; Aib = CC(C)(N)C(=O)O

Columns and labels:
Apelin receptor [1] = molecular target: T1, Apelin receptor (Rattus norvegicus, UniProt Q9JHG3); assay: Displacement of [125I]-pyr-1-apelin-13 from EGFP-tagged wild-type rat apelin receptor expressed in CHO cell membranes by gamma counting method; parameters: species or system Cell membrane
T1 sequence (Q9JHG3 whole entry): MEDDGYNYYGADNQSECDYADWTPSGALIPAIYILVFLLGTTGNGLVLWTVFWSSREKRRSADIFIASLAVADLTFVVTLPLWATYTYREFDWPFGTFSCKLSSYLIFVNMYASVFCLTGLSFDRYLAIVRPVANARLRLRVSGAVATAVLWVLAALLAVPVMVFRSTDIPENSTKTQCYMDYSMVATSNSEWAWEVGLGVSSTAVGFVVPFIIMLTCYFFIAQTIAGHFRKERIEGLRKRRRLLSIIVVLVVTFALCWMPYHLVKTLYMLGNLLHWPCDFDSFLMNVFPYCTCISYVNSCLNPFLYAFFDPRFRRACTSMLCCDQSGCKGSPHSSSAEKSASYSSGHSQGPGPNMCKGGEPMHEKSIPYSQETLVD

Apelin receptor [2] = molecular target: T2, Apelin receptor (Homo sapiens, UniProt P35414); assay: Activation of APJ receptor (unknown origin) expressed in Chem-5 cells assessed as stimulation of Ca2+ mobilization by Calcium 6-GF dye based fluorescence based assay; type: functional, cell-based
T2 sequence (P35414 whole entry): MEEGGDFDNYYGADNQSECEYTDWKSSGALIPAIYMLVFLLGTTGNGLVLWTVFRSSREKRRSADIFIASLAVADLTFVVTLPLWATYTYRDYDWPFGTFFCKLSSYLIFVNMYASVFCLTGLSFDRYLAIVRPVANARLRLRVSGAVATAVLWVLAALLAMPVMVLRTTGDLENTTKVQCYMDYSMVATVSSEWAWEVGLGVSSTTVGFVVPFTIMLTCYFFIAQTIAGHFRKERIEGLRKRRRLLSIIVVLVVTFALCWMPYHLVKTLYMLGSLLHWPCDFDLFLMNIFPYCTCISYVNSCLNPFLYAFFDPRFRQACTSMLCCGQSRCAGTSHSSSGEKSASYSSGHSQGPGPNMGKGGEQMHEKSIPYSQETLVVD

[3] = Half life in human plasma at 400 uM by HPLC analysis; type: ADME, cell-free
Mus musculus = assay: Cardioprotective activity in C57BL/6 mouse assessed as reduction in mean arterial blood pressure at 1.4 uM/kg, iv measured after 15 mins relative to control; type: functional; conditions: 0.25 h

Row | IC50 (Apelin receptor [1]) [nM] | EC50 (Apelin receptor [2]) [nM] | half-life at 400 µM [3] [h] | Compound | Activity (Mus musculus) [mmHg]
1 | 0.2 | – | – | CCCC[C@H](NC(=O)[C@@H]1CCCN1C(=O)CNC(=O)[C@H](CCCCN)NC(=O)[C@H](Cc1c[nH]cn1)NC(=O)[C@H](CO)NC(=O)[C@H](CC(C)C)NC(=O)[C@H](CCCNC(=N)N)NC(=O)[C@@H]1CCCN1C(=O)[C@H](CCCNC(=N)N)NC(=O)[C@H](CCC(N)=O)NC(=O)[C@H](CCCNC(=N)N)NC(=O)[C@H](CCCNC(=N)N)NC(=O)[C@H](Cc1ccccc1)NC(=O)[C@H](C)N)C(=O)NC(C)(C)C(=O)N[C@@H](Cc1ccc(Br)cc1)C(=O)O (H-AFRRQRPRLSHKGP[Nle][Aib][Phe(4-Br)]-OH) | –
2 | 3.31 | 53.7 | 2.8 | CCCC[C@H](NC(=O)[C@@H]1CCCN1C(=O)CNC(=O)[C@H](CCCCN)NC(=O)[C@H](Cc1c[nH]cn1)NC(=O)[C@H](CO)NC(=O)[C@H](CC(C)C)N(C)C(=O)[C@H](CCCNC(=N)N)NC(=O)[C@@H]1CCCN1C(=O)[C@H](CCCNC(=N)N)NC(=O)[C@H](CCC(N)=O)NC(=O)[C@H](CCCNC(=N)N)NC(=O)[C@H](CCCNC(=N)N)NC(=O)[C@H](Cc1ccccc1)NC(=O)[C@H](CCCCN)NC(=O)CCOCCOCCOCCOC)C(=O)NC(C)(C)C(=O)N[C@@H](Cc1ccc(Br)cc1)C(=O)O (X1-KFRRQRPR[NMeL]SHKGP[Nle][Aib][Phe(4-Br)]-OH) | 32
3 | 0.219 | – | – | CCCC[C@H](NC(=O)[C@@H]1CCCN1C(=O)CNC(=O)[C@H](CCCCN)NC(=O)[C@H](Cc1c[nH]cn1)NC(=O)[C@H](CO)NC(=O)[C@H](CC(C)C)NC(=O)[C@H](CCCNC(=N)N)NC(=O)[C@@H]1CCCN1C(=O)[C@H](CCCNC(=N)N)NC(=O)[C@H](CCC(N)=O)NC(=O)[C@H](CCCNC(=N)N)NC(=O)[C@H](C)NC(=O)[C@H](Cc1ccccc1)NC(=O)[C@@H](N)CCCCN)C(=O)NC(C)(C)C(=O)N[C@@H](Cc1ccc(Br)cc1)C(=O)O (H-KFARQRPRLSHKGP[Nle][Aib][Phe(4-Br)]-OH) | –
4 | 1.91 | > 200 | 8.6 | CCCC[C@H](NC(=O)[C@@H]1CCCN1C(=O)CNC(=O)[C@H](CCCCN)NC(=O)[C@H](Cc1c[nH]cn1)NC(=O)[C@H](CO)NC(=O)[C@H](CC(C)C)N(C)C(=O)[C@H](CCCNC(=N)N)NC(=O)[C@@H]1CCCN1C(=O)[C@H](CCCNC(=N)N)NC(=O)[C@H](CCC(N)=O)NC(=O)CCOCCOCCOCCOCCOCCOCCOCCOCCOCCOCCNC(=O)OCC1c2ccccc2-c2ccccc21)C(=O)NC(C)(C)C(=O)N[C@@H](Cc1ccc(Br)cc1)C(=O)O | 1
5 | 1 | 6.17 | – | CSCC[C@H](NC(=O)[C@@H]1CCCN1C(=O)CNC(=O)[C@H](CCCCN)NC(=O)[C@H](Cc1c[nH]cn1)NC(=O)[C@H](CO)NC(=O)[C@H](CC(C)C)NC(=O)[C@H](CCCNC(=N)N)NC(=O)[C@@H]1CCCN1C(=O)[C@H](CCCNC(=N)N)NC(=O)[C@H](CCC(N)=O)NC(=O)[C@H](CCCNC(=N)N)NC(=O)[C@H](CCCNC(=N)N)NC(=O)[C@H](C)NC(=O)[C@@H](N)CCCCN)C(=O)N1CCC[C@H]1C(=O)N[C@@H](Cc1ccccc1)C(=O)O | -3
6 | 3.02 | 49 | 6.9 | CCCC[C@H](NC(=O)[C@@H]1CCCN1C(=O)CNC(=O)[C@H](CCCCN)NC(=O)[C@H](Cc1c[nH]cn1)NC(=O)[C@H](CO)NC(=O)[C@H](CC(C)C)N(C)C(=O)[C@H](CCCNC(=N)N)NC(=O)[C@@H]1CCCN1C(=O)[C@H](CCCNC(=N)N)NC(=O)[C@H](CCC(N)=O)NC(=O)CCOCCOCCOCCOCCOCCOCCNC(=O)OCC1c2ccccc2-c2ccccc21)C(=O)NC(C)(C)C(=O)N[C@@H](Cc1ccc(Br)cc1)C(=O)O | 9
7 | 1 | 2.4 | 7.1 | CCCC[C@H](NC(=O)[C@@H]1CCCN1C(=O)CNC(=O)[C@H](CCCCN)NC(=O)[C@H](Cc1c[nH]cn1)NC(=O)[C@H](CO)NC(=O)[C@H](CC(C)C)N(C)C(=O)[C@H](CCCNC(=N)N)NC(=O)[C@@H]1CCCN1C(=O)[C@H](CCCNC(=N)N)NC(=O)[C@H](CCC(N)=O)NC(=O)[C@](C)(CCCNC(=N)N)NC(=O)[C@H](CCCNC(=N)N)NC(=O)[C@H](Cc1ccccc1)NC(=O)[C@@H](N)CCCCN)C(=O)NC(C)(C)C(=O)N[C@@H](Cc1ccc(Br)cc1)C(=O)O (H-KFR[αMeR]QRPR[NMeL]SHKGP[Nle][Aib][Phe(4-Br)]-OH) | 18
8 | 6.31 | 7.76 | 2 | CCCC[C@H](NC(=O)[C@@H]1CCCN1C(=O)CNC(=O)[C@H](CCCCN)NC(=O)[C@H](Cc1c[nH]cn1)NC(=O)[C@H](CO)NC(=O)[C@H](CC(C)C)N(C)C(=O)[C@H](CCCNC(=N)N)NC(=O)[C@@H]1CCCN1C(=O)[C@H](CCCNC(=N)N)NC(=O)[C@H](CCC(N)=O)NC(=O)[C@H](CCCNC(=N)N)NC(=O)[C@H](CCCNC(=N)N)NC(=O)[C@H](Cc1ccccc1)NC(=O)[C@H](CCCCN)NC(=O)CCOCCOCCOCCOCCN)C(=O)NC(C)(C)C(=O)N[C@@H](Cc1ccc(Br)cc1)C(=O)O (H-[PEG4]KFRRQRPR[NMeL]SHKGP[Nle][Aib][Phe(4-Br)]-OH) | 24
9 | 1 | 5.37 | – | CSCC[C@H](NC(=O)[C@@H]1CCCN1C(=O)CNC(=O)[C@H](CCCCN)NC(=O)[C@H](Cc1c[nH]cn1)NC(=O)[C@H](CO)NC(=O)[C@H](CC(C)C)NC(=O)[C@H](CCCNC(=N)N)NC(=O)[C@@H]1CCCN1C(=O)[C@H](CCCNC(=N)N)NC(=O)[C@H](CCC(N)=O)NC(=O)[C@H](CCCNC(=N)N)NC(=O)[C@H](CCCNC(=N)N)NC(=O)[C@H](Cc1ccccc1)NC(=O)[C@H](C)N)C(=O)N1CCC[C@H]1C(=O)N[C@@H](Cc1ccccc1)C(=O)O | -14
10 | 1.7 | 8.13 | 0.7 | CCCC[C@H](NC(=O)[C@@H]1CCCN1C(=O)CNC(=O)[C@H](CCCCN)NC(=O)[C@H](Cc1c[nH]cn1)NC(=O)[C@H](CO)NC(=O)[C@H](CC(C)C)N(C)C(=O)[C@H](CCCNC(=N)N)NC(=O)[C@@H]1CCCN1C(=O)[C@H](CCCNC(=N)N)NC(=O)[C@H](CCC(N)=O)NC(=O)[C@H](CCCNC(=N)N)NC(=O)[C@H](CCCNC(=N)N)NC(=O)[C@H](Cc1ccccc1)NC(=O)[C@H](CCCCN)NC(=O)CCOCCOCCOCCOCCOCCOCCOCCOC)C(=O)NC(C)(C)C(=O)N[C@@H](Cc1ccc(Br)cc1)C(=O)O ({CH3O(CH2CH2O)7C2H4CO}-KFRRQRPR[NMeL]SHKGP[Nle][Aib][Phe(4-Br)]-OH) | 30
11 | 0.302 | – | – | CCCC[C@H](NC(=O)[C@@H]1CCCN1C(=O)CNC(=O)[C@H](CCCCN)NC(=O)[C@H](Cc1c[nH]cn1)NC(=O)[C@H](CO)NC(=O)[C@H](CC(C)C)NC(=O)[C@H](CCCNC(=N)N)NC(=O)[C@@H]1CCCN1C(=O)[C@H](CCCNC(=N)N)NC(=O)[C@H](CCC(N)=O)NC(=O)[C@H](C)NC(=O)[C@H](CCCNC(=N)N)NC(=O)[C@H](Cc1ccccc1)NC(=O)[C@@H](N)CCCCN)C(=O)NC(C)(C)C(=O)N[C@@H](Cc1ccc(Br)cc1)C(=O)O (H-KFRAQRPRLSHKGP[Nle][Aib][Phe(4-Br)]-OH) | –
12 | 1.41 | 39.8 | – | CSCC[C@H](NC(=O)[C@@H]1CCCN1C(=O)CNC(=O)[C@H](CCCCN)NC(=O)[C@H](Cc1c[nH]cn1)NC(=O)[C@H](CO)NC(=O)[C@H](CC(C)C)NC(=O)[C@H](CCCNC(=N)N)NC(=O)[C@@H]1CCCN1C(=O)[C@H](CCCNC(=N)N)NC(=O)[C@H](CCC(N)=O)NC(=O)[C@H](CCCNC(=N)N)NC(=O)[C@H](C)NC(=O)[C@H](Cc1ccccc1)NC(=O)[C@@H](N)CCCCN)C(=O)N1CCC[C@H]1C(=O)N[C@@H](Cc1ccccc1)C(=O)O | 1
13 | 0.295 | – | – | CCCC[C@H](NC(=O)[C@@H]1CCCN1C(=O)CNC(=O)[C@H](CCCCN)NC(=O)[C@H](Cc1c[nH]cn1)NC(=O)[C@H](CO)NC(=O)[C@H](CC(C)C)NC(=O)[C@H](CCCNC(=N)N)NC(=O)[C@@H]1CCCN1C(=O)[C@H](CCCNC(=N)N)NC(=O)[C@H](CCC(N)=O)NC(=O)[C@H](CCCNC(=N)N)NC(=O)[C@H](CCCNC(=N)N)NC(=O)[C@H](C)NC(=O)[C@@H](N)CCCCN)C(=O)NC(C)(C)C(=O)N[C@@H](Cc1ccc(Br)cc1)C(=O)O (H-KARRQRPRLSHKGP[Nle][Aib][Phe(4-Br)]-OH) | –
14 | 2.19 | 74.1 | – | CSCC[C@H](NC(=O)[C@@H]1CCCN1C(=O)CNC(=O)[C@H](CCCCN)NC(=O)[C@H](Cc1c[nH]cn1)NC(=O)[C@H](CO)NC(=O)[C@H](CC(C)C)NC(=O)[C@H](CCCNC(=N)N)NC(=O)[C@@H]1CCCN1C(=O)[C@H](CCCNC(=N)N)NC(=O)[C@H](CCC(N)=O)NC(=O)[C@H](C)NC(=O)[C@H](CCCNC(=N)N)NC(=O)[C@H](Cc1ccccc1)NC(=O)[C@@H](N)CCCCN)C(=O)N1CCC[C@H]1C(=O)N[C@@H](Cc1ccccc1)C(=O)O | -9
